This note sets out measurements from patent US8404692B2, “Pyrimidin-4-yl-3, 4-dihydro-2H-pyrrolo [1,2A] pyrazin-1-one compounds” (Cyclacel Limited, priority 2005, dated 2013).

In one experiment the test system is MiaPaCa. Kind of experiment: MTT cytotoxicity assay MiaPaCa. The class given is cell-based. The conditions noted are these: Homo sapiens, MIA PaCa-2; MiaPaCa cells, 96-h MTT. The procedure:
(§1) The compounds of the invention were subjected to a standard cellular proliferation assay using cell lines […] and MiaPaCa (obtained from The European Collection of Cell Cultures). […] C.; Thomas, D. G.; Darling, J. L. Anti Cancer Drugs 1996, 7, 331-8; Loveland, B. E.; Johns, T. G.; Mackay, I. R.; Vaillant, F.; Wang, Z. X.; Hertzog, P. J. Biochemistry International 1992, 27, 501-10). In short: cells were seeded into 96-well plates according to doubling time and incubated overnight at 37° C. […] MTT was made up as a stock of 5 mg/mL in cell media and filter-sterilised. Media was removed from cells followed by a wash with 200 μL PBS. MTT solution was then added at 20 μL per well and incubated in the dark at 37° C. for 4 h. MTT solution was removed and cells again washed with 200 μL PBS. MT dye was solubilised with […] per well of DMSO with agitation. Absorbance was read at 540 nm and data analysed using curve-fitting software (GraphPad Prism version 3.00 for Windows, GraphPad Software, San Diego Calif. USA) to determine IC50 values (concentration of test compound which inhibits cell growth by 50%).
For orientation: Tetrazolium assays rely on reduction of a dye to a coloured formazan, in cell work by metabolically active cells.

In the next experiment the target is CDK2/E (Homo sapiens, UniProt P24941). Kind of experiment: In vitro kinase assay CDK2/E. The conditions noted are these: in vitro kinase data. It is filed as biochemical. The procedure: The compounds of the invention above were investigated for their ability to inhibit the enzymatic activity of various protein kinases. This was achieved by measurement of incorporation of radioactive phosphate from ATP into appropriate polypeptide substrates. Recombinant protein kinases and kinase complexes were produced or obtained commercially. Assays were performed using 96-well plates and appropriate assay buffers (typically 25 mM β-glycerophosphate, 20 mM MOPS, 5 mM EGTA, 1 mM DTT, 1 mM […], pH 7.4), into which were added 2-4 μg of active enzyme with appropriate substrates. The reactions were initiated by addition of Mg/ATP mix (15 mM MgCl2+100 μM ATP with 30-50 kBq per well of [γ-^32P]-ATP) and mixtures incubated as required at 30° C. Reactions were stopped on ice, followed by filtration through p81 filterplates or GF/C filterplates (Whatman Polyfiltronics, Kent, UK). After washing 3 times with 75 mM aq orthophosphoric acid, plates were dried, scintillant added and incorporated radioactivity measured in a scintillation counter (TopCount, Packard Instruments, Pangbourne, Berks, UK). Compounds for kinase assay were made up as 10 mM stocks in DMSO and diluted into 10% DMSO in assay buffer. […]

For the next experiment, the system named is A2780. Kind of experiment: MTT cytotoxicity assay A2780. It is filed as cell-based. The conditions noted are these: Homo sapiens; A2780 cells, 96-h MTT. The procedure:
as §1

The next experiment concerns the target T1, aurora-A (human) (Homo sapiens, UniProt O14965).
T1 construct: purchased Upstate, Dundee, UK
T1 sequence (O14965 1-403): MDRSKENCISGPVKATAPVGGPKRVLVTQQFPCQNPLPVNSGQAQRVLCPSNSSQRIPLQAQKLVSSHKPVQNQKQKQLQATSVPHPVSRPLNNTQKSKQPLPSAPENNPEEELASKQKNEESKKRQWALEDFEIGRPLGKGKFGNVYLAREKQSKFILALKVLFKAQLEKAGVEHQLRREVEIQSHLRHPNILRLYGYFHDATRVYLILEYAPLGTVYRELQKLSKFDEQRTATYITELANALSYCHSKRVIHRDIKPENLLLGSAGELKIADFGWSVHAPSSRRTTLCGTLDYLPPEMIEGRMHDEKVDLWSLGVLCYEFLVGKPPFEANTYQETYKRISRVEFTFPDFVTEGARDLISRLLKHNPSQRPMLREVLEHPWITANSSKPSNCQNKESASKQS
Kind of experiment: Aurora-A (human) kinase assay. It is filed as biochemical. The conditions noted are these: read-out: Activity (Aurora A activity, IC50 grading). Put shortly:
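Radiometric assay measuring [γ-32P] transfer from 100 μM ATP to 500 μM Kemptide by 2-5 ng active human aurora-A, pH 7.5 buffer, 30 min at 30° C. Incorporated label captured on P81 filters and counted by scintillation; IC50 from curve fitting.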

A further experiment concerns the target human CDK7/cyclin H (Homo sapiens, UniProt P50613). Kind of experiment: CDK 7 and 9 assays: CDK7/H. It is filed as biochemical. The conditions noted are these: in vitro kinase data. The procedure:
The compounds of the invention above were investigated for their ability to inhibit the enzymatic activity of various protein kinases. This was achieved by measurement of incorporation of radioactive phosphate from ATP into appropriate polypeptide substrates. Recombinant protein kinases and kinase complexes were produced or obtained commercially. Assays were performed using 96-well plates and appropriate assay buffers (typically 25 mM β-glycerophosphate, 20 mM MOPS, 5 mM EGTA, 1 mM DTT, 1 mM […], pH 7.4), into which were added 2-4 μg of active enzyme with appropriate substrates. The reactions were initiated by addition of Mg/ATP mix (15 mM MgCl2+100 μM ATP with 30-50 kBq per well of [γ-^32P]-ATP) and mixtures incubated as required at 30° C. Reactions were stopped on ice, followed by filtration through p81 filterplates or GF/C filterplates (Whatman Polyfiltronics, Kent, UK). After washing 3 times with 75 mM aq orthophosphoric acid, plates were dried, scintillant added and incorporated radioactivity measured in a scintillation counter (TopCount, Packard Instruments, Pangbourne, Berks, UK). Compounds for kinase assay were made up as 10 mM stocks in DMSO and diluted into 10% DMSO in assay buffer. Data was analysed using curve-fitting software (GraphPad Prism version 3.00 for Windows, GraphPad Software, San Diego Calif. USA) to determine IC50 values (concentration of test compound which inhibits kinase activity by 50%).
CTD peptide substrate (biotinyl-Ahx-(Tyr-Ser-Pro-Thr-Ser-Pro-Ser)4-NH2; 1-2 mg/mL) and recombinant human CDK7/cyclin H, CDK9/cyclin T1, or CDK9/cyclin K (0.5-2 μg) were incubated for 45 min at 30° C. in the presence of varying amounts of test compound in 20 mM MOPS pH 7.2, 25 mM β-glycerophosphate, 5 mM EGTA, 1 mM DTT, 1 mM sodium vanadate, 15 mM MgCl2, and 100 μM ATP (containing a trace amount of ^32PγATP) in a total volume of 25 μL in a 96-well microtiter plate. […] Microscint 40 scintillation liquid (50 μL) was added to each well, and the amount of ^32P incorporation for each sample was measured using a Packard Topcount microplate scintillation counter.

Experiment [1] relates to nuclear phospho-Histone H3 and/or MPM2 staining. Kind of experiment: Cellomics Arrayscan assay for mitotic index (PH3 and MPM2 staining). The conditions noted are these: for IC50: IC50 of phosphorylated Histone H3 staining normalised using MPM2 staining, read-out: MI (Cellomics) PH3/MPM2 IC50*; for MI (Cellomics) MPM2 % of Control**: cells stained with MPM2 Ab after treatment, as % of MPM2 stained cells treated with vehicle (DMSO). It is filed as cell-based. The procedure:
The percentage of cells with nuclear phospho-Histone H3 and/or MPM2 staining were determined in 96-well plate assays using the Cellomics Arrayscan Mitotic Index HitKit protocol (Cellomics Inc). Briefly, cells were plated at 10^4 cells per well and incubated for 16-18 h at 37° C. Compounds were added and the cells incubated for the appropriate time before a 15 min fixation in 3.7% formaldehyde in wash buffer (Cellomics Inc.). Cells were permeabilised in 0.2% Triton in wash buffer for 15 min, washed, then incubated with primary antibodies that specifically recognise mitotic epitopes; rabbit anti-phosphohistone H3 (Upstate 06570) or mouse anti-phospho-Ser/Thr-Pro MPM2 (Upstate 05-368). After a 1 h incubation cells were washed and incubated with secondary FITC-conjugated anti-mouse and/or TRITC-conjugated anti-rabbit secondary antibodies (Jackson laboratories) and Hoescht dye. After a further 1 h incubation the cells were washed, then the plate was analysed using a Cellomics Arrayscan II automated fluorescent microscopy system to detect nuclear fluorescent staining. Data for 2000 cells per well were stored and the percentage of cells expressing mitotic epitopes compared to total cells (stained with Hoescht dye) was calculated using the Cellomics mitotic index algorithm.

Chain of human CDK7/cyclin H (P50613 whole entry): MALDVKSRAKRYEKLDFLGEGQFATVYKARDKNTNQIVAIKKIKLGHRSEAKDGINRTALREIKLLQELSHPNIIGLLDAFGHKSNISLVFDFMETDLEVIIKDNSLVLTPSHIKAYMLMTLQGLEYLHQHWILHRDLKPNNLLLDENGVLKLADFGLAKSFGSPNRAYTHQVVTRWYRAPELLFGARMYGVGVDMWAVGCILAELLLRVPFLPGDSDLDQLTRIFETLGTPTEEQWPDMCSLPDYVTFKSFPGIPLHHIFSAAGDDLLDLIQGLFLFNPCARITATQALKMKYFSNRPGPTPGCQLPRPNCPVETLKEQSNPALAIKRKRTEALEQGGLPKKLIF
Chain of human CDK7/cyclin H (P51946 whole entry partner): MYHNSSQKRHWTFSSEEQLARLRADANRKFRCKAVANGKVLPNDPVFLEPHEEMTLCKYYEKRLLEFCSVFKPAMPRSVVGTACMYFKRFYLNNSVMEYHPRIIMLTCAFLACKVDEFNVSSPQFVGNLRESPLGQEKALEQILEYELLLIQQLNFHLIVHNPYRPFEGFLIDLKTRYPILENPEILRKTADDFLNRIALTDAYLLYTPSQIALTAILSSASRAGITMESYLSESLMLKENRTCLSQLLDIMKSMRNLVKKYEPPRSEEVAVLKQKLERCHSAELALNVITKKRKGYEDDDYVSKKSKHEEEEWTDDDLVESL

In general, Ki refers to a measure of affinity in units of concentration, obtained from inhibition or displacement. Lower therefore signals tighter binding. With `Cc1c(-c2ccnc(Nc3ccc(F)cc3)n2)c(C)n2c1C(=O)NCC2` [Example I-1, 7-[2-(4-Fluoro-phenylamino)-pyrimidin-4-yl]-6,8-dimethyl-3,4-dihydro-2H-pyrrolo[1,2-a]pyrazin-1-one], the IC50 is greater than 10000 nM in the experiment with MiaPaCa, 4470 nM in the experiment with A2780, less than 1000 nM at aurora-A (human) and 16300 nM in experiment [1]. In addition, the Ki on CDK2/E turned out to be 1130 nM; on human CDK7/cyclin H it was 2990 nM. Also, the “MI (Cellomics) MPM2 % of Control**” value in experiment [1] was 239%.
Regarding `Cc1c(-c2ccnc(Nc3ccc(N4CCOCC4)cc3)n2)c(C)n2c1C(=O)NCC2` [Example I-2, 6,8-Dimethyl-7-[2-(4-morpholin-4-yl-phenylamino)-pyrimidin-4-yl]-3,4-dihydro-2H-pyrrolo[1,2-a]pyrazin-1-one], the IC50 is 1800 nM in the experiment with MiaPaCa, 575 nM in the experiment on A2780, less than 1000 nM at aurora-A (human) and 9200 nM in experiment [1]. Also, affinity on human CDK7/cyclin H was put at a Ki of 3410 nM. Besides, in experiment [1], the “MI (Cellomics) MPM2 % of Control**” value amounted to 333%.
As to `COc1cc(Nc2nccc(-c3c(C)c4n(c3C)CCNC4=O)n2)ccc1N1CCOCC1` [Example I-3, 7-[2-(3-Methoxy-4-morpholin-4-yl-phenylamino)-pyrmidin-4-yl]-6,8-dimethyl-3,4-dihydro-2H-pyrrolo[1,2-a]pyrazin-1-one], the IC50 in the experiment on MiaPaCa is 1850 nM; with A2780, 750 nM; at aurora-A (human) it was less than 100 nM; in experiment [1], 4740 nM. On human CDK7/cyclin H, this compound came in with a Ki of 2790 nM. Further, in experiment [1], the “MI (Cellomics) MPM2 % of Control**” value was determined as 317%.
